Results taken from ChEMBL document CHEMBL4346753, “Towards multi-target antidiabetic agents: Discovery of biphenyl-benzimidazole conjugates as AMPK activators” (Bioorg Med Chem Lett, 2019).
Activity calls are given as the source filed them. The rule behind the calls is not given here.

Columns and labels:
[1] = Inhibition of AGE formation assessed as reduction in reduction in bovin serum albumin glycation incubated for 24 hrs in presence of glucose, Cu2+ by spectrophotometric analysis; format: functional
Rattus norvegicus = species: Rattus norvegicus; experiment: Antagonist activity at AT1 receptor in rat portal vein assessed as reduction in […] contraction at 10 uM incubated for 1 min relative to control; design: scale not given: the % may be the effect or the level left
[2] = Inhibition of AGE formation assessed as reduction in reduction in bovin serum albumin glycation incubated for 24 hrs in presence of glucose by spectrophotometric analysis; format: functional
[3] = Inhibition of AGE formation assessed as reduction in bovin serum albumin glycation at 1 mM incubated for 24 hrs in presence of glucose by spectrophotometric analysis relative to control; format: functional
[4] = Inhibition of AGE formation assessed as reduction in reduction in bovin serum albumin glycation at 1 mM incubated for 24 hrs in presence of glucose, Cu2+ by spectrophotometric analysis relative to control; format: functional
[5] = Ratio of antiplatelet activity for test compound to antiplatelet activity for acetylsalicylic acid in rabbit platelet rich plasma assessed as inhibition of ADP-induced platelet aggregation at 100 uM; format: functional, Oryctolagus cuniculus
[6] = target: T1, AMP-activated protein kinase (AMPK) alpha-1/beta-1/gamma-1 (Homo sapiens) (UniProt P54619+Q9Y478+Q13131); experiment: Activation of C-terminal His tagged human recombinant full length AMPK alpha1/beta1/gamma1 expressed in baculovirus infected Sf9 cells using SAMS peptide as substrate at 100 uM incubated for 60 mins by ADP-Glo luminescence assay relative to control
T1 sequence (P54619 whole entry): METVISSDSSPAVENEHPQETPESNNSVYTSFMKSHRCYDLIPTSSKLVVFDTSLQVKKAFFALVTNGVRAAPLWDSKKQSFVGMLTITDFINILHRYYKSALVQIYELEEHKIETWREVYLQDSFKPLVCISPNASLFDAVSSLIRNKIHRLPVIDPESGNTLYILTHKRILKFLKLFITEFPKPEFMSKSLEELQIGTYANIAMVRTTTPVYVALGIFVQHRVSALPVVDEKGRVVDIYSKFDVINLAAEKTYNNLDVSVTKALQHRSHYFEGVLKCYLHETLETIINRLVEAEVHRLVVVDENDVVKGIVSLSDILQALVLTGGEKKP
T1 sequence (Q13131 whole entry partner): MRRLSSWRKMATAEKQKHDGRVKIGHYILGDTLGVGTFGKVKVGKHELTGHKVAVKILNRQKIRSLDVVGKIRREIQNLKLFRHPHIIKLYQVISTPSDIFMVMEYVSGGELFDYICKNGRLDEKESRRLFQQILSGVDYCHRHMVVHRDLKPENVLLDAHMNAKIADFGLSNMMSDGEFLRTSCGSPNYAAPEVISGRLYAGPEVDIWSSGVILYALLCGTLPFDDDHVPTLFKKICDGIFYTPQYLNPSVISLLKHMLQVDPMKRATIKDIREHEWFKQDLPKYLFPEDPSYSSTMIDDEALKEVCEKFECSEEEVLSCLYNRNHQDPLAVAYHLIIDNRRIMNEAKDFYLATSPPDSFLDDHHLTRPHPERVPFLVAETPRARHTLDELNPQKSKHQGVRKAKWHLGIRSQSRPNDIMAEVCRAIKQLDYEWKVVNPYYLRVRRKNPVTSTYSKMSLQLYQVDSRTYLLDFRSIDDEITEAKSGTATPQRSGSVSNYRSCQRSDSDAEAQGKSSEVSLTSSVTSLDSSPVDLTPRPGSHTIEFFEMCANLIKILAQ
T1 sequence (Q9Y478 2-270 partner limits assumed): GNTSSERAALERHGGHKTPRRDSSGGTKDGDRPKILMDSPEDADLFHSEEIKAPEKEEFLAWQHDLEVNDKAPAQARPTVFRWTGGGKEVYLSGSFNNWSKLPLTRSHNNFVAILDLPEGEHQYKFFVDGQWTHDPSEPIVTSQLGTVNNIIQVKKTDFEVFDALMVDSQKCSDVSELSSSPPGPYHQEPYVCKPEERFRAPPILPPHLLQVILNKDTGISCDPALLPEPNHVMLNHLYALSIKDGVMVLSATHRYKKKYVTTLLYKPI

Platelet = experiment: Antiplatelet activity in rabbit platelet rich plasma assessed as inhibition of ADP-induced platelet aggregation at 100 uM relative to control; format: functional, Oryctolagus cuniculus; design: scale not given: the % may be the effect or the level left
[7] = target: T2, AMP-activated protein kinase (AMPK) alpha-1/beta-1/gamma-1 (Homo sapiens, UniProt P54619+Q13131+Q9Y478); experiment: (§1) Activation of C-terminal His tagged human recombinant full length AMPK alpha1/beta1/gamma1 expressed in baculovirus infected Sf9 cells using SAMS peptide as substrate incubated for 60 mins by ADP-Glo luminescence assay
T2 sequence (P54619 whole entry): as the sequence (P54619 whole entry) above
T2 sequence (Q9Y478 whole entry): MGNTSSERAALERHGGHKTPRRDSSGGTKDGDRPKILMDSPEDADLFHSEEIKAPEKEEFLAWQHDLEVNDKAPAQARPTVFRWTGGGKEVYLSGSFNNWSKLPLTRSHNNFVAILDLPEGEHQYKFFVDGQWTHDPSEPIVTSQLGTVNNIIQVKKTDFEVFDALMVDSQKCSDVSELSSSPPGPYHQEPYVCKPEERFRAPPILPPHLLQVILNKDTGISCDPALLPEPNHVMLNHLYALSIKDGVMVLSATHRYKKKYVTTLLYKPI
T2 sequence (Q13131 whole entry): as the sequence (Q13131 whole entry partner) above

[8] = target: T1, AMP-activated protein kinase (AMPK) alpha-1/beta-1/gamma-1 (Homo sapiens); experiment: as §1
[9] = Solubility of the compound in PBS at pH 7.4; format: physicochemical
[10] = target: T1, AMP-activated protein kinase (AMPK) alpha-1/beta-1/gamma-1 (Homo sapiens); experiment: Activation of C-terminal His tagged human recombinant full length AMPK alpha1/beta1/gamma1 expressed in baculovirus infected Sf9 cells assessed as enzyme activation using SAMS peptide as substrate at 100 uM incubated for 60 mins by ADP-Glo luminescence assay relative to control
[11] = Ratio of inhibition of formation in AGE for test compound to inhibition of formation in AGE for aminoguanidine at 1 mM incubated for 24 hrs in presence of glucose by spectrophotometric analysis
[12] = Binding affinity to glyoxal assessed as reduction in glyoxal by GirardT reagent based spectrophotometric method
[13] = target: T2, AMP-activated protein kinase (AMPK) alpha-1/beta-1/gamma-1; experiment: Activation of human AMPK alpha1/beta1/gamma1 expressed in baculovirus/Sf9 cells using SAMS peptide as substrate incubated for 15 mins by in presence of 33P-ATP by liquid scintillation counting method
Peritoneal macrophage [14] = experiment: Cytotoxicity against mouse peritoneal macrophages up to 50 uM incubated for 24 hrs by neutral red assay; format: cell-based
Peritoneal macrophage [15] = experiment: Anti-inflammatory activity in mouse peritoneal macrophages assessed as inhibition of LPS-induced NO production incubated for 22 hrs by Griess reagent based colorimetric assay; format: functional, cell-based
Peritoneal macrophage [16] = experiment: Cytotoxicity against mouse peritoneal macrophages up to 50 uM incubated for 24 hrs by MTT assay; format: cell-based
[17] = target: AMP-activated protein kinase, AMPK; experiment: Activation of recombinant human AMPK expressed in Sf9 cells using SAMS peptide as substrate preincubated for 30 mins followed by substrate addition and measured after 60 mins by fluorescence based assay
[18] = Activation of recombinant rhesus monkey AMPK expressed in Sf9 cells using SAMS peptide as substrate preincubated for 30 mins followed by substrate addition and measured after 60 mins by fluorescence based assay; design: species or system Macaca mulatta
[19] = target: 5'-AMP-activated protein kinase; experiment: Activation of recombinant mouse AMPK expressed in Sf9 cells using SAMS peptide as substrate preincubated for 30 mins followed by substrate addition and measured after 60 mins by fluorescence based assay

| SMILES | Activity (Rattus norvegicus) [%] | inhibition [3] [%] | Ratio [5] | Activity [6] [%] | Activity (Platelet) [%] | further results |
| --- | --- | --- | --- | --- | --- | --- |
| CCCCc1nc(Cl)c(CO)n1Cc1ccc(-c2ccccc2-c2nnn[nH]2)cc1 [LOSARTAN] | 99 | 51.4 | – | – | – | IC50 ([1]; read-out: IC50): 782 µM; IC50 [2]: > 1000 µM; inhibition [4]: 51.4% |
| Br.c1ccc(-c2ccc(CN3C4=NCCCCN4c4ccccc43)cc2)cc1 | 13.5 | – | 2.1 - 3.6 | 12.3 | 98.7 | – |
| Cc1ccc(OCCSc2ncccn2)c(Br)c1 | – | – | – | 157 | – | EC50 ([7]; read-out: EC50): 0.55 µM |
| Br.O=C(O)c1ccc(CN2C3=NCCN3c3ccccc32)cc1 | 11.1 | 19.2 | 2.1 - 3.6 | 3.7 | 57 | – |
| COC(=O)c1ccccc1-c1ccc(CN2C3=NCCN3c3ccccc32)cc1 | -5.7 | 0.4 | – | 3.5 | – | – |
| Br.N#Cc1ccc(C(=O)CN2C3=NCCN3c3ccccc32)cc1 | 0 | 72.1 | – | 25.5 | 6.6 | IC50 ([1]; read-out: IC50): > 1000 µM; pEC50 [8]: inactive; IC50 [2]: 422 µM; solubility [9]: > 500 µM; fold change (FC) [10]: inactive; Ratio [11]: 1.8; Activity [12]: Active; inhibition [4]: 25.4% |
| Br.CCOC(=O)c1ccc(CN2C3=NCCN3c3ccccc32)cc1 | 5.6 | 17.5 | 2.1 - 3.6 | 0.6 | 76.3 | – |
| N#Cc1c(O)c2c(-c3ccc(-c4ccccc4O)cc3)csc2[nH]c1=O | – | – | – | – | – | EC50 [13]: 0.8 µM |
| O=C(O)c1ccccc1-c1ccc(CN2C3=NCCCN3c3ccccc32)cc1 | 7.5 | 38.5 | – | -16.2 | – | – |
| CC(=O)Oc1ccccc1C(=O)O [ASPIRIN] | – | – | – | – | 27.8 | – |
| COC(=O)c1ccccc1-c1ccc(CN2C3=NCCCN3c3ccccc32)cc1 | 5.9 | 14.9 | – | 21.7 | – | – |
| Br.N#Cc1ccccc1-c1ccc(CN2C3=NCCCN3c3ccccc32)cc1 | 40.4 | -9.2 | – | 197 | – | Activity (Peritoneal macrophage [14]): Non-Toxic; EC50 ([7]; read-out: EC50): 0.34 µM; IC50 (Peritoneal macrophage [15]): 4.96 µM; solubility [9]: > 500 µM; fold change (FC) [10]: 2.81; Activity (Peritoneal macrophage [16]): Non-Toxic |
| Br.COC(=O)c1ccccc1-c1ccc(CN2C3=NCCCCN3c3ccccc32)cc1 | 33.3 | 17.9 | 2.1 - 3.6 | -11.3 | 97.4 | – |
| O=C(O)c1ccccc1-c1ccc(CN2C3=NCCCCN3c3ccccc32)cc1 | 20 | 30.8 | – | -36.4 | – | – |
| Br.N#Cc1ccccc1-c1ccc(CN2C3=NCCN3c3ccccc32)cc1 | 21.9 | 8.6 | 2.1 - 3.6 | 163 | 57.1 | EC50 ([7]; read-out: EC50): 109 µM; EC50 ([7]; read-out: pEC50 (converted)): 25.1 µM; IC50 (Peritoneal macrophage [15]): 5.32 µM; solubility [9]: > 500 µM; fold change (FC) [10]: 1.56 |
| C[C@@H]1C[C@H]2[C@@H]3CCC4=CC(=O)C=C[C@]4(C)[C@@]3(F)[C@@H](O)C[C@]2(C)[C@@]1(O)C(=O)CO [DEXAMETHASONE] | – | – | – | – | – | IC50 (Peritoneal macrophage [15]): 0.15 µM |
| O=C(O)c1ccccc1-c1ccc(CN2C3=NCCN3c3ccccc32)cc1 | -1.7 | 7.7 | – | 6.9 | – | – |
| Br.c1ccc(-c2ccc(CN3C4=NCCN4c4ccccc43)cc2)cc1 | 5.2 | 22.5 | 2.1 - 3.6 | 54.2 | 89.2 | – |
| Br.N#Cc1ccccc1-c1ccc(CN2C3=NCCCCN3c3ccccc32)cc1 | 0 | – | – | 293 | – | Activity (Peritoneal macrophage [14]): Non-Toxic; EC50 ([7]; read-out: EC50): 0.44 µM; solubility [9]: > 500 µM; fold change (FC) [10]: 4; Activity (Peritoneal macrophage [16]): Non-Toxic |
| Br.c1ccc(-c2ccc(CN3C4=NCCCN4c4ccccc43)cc2)cc1 | 14.6 | 9.9 | 2.1 - 3.6 | 16 | 95.2 | – |
| N=C(N)NN [PIMAGEDINE] | – | 57.8 | – | – | – | IC50 [1]: Not Active; IC50 [2]: 765 µM; Activity [12]: Active |
| O[C@@H]1CO[C@H]2[C@@H]1OC[C@H]2Oc1nc2nc(-c3ccc(-c4ccccc4)cc3)c(Cl)cc2[nH]1 | – | – | – | – | – | EC50 [17]: 0.001 to 0.06 µM; EC50 [18]: 0.001 to 0.06 µM; EC50 [19]: 0.001 to 0.06 µM |
